In patent US12473304B2, “Heterocyclic PAD4 inhibitors” (BRISTOL-MYERS SQUIBB COMPANY, priority 2020, dated 2025):

Target: human PAD4 (hPAD4) (Homo sapiens (Human), UniProt Q9UM07)
Assay: RFMS Human PAD4 Functional Assay 1
Format: biochemical
Details: RFMS assay 1; 5 nM hPAD4, 250 μM BAEE substrate, 50 μM calcium, 37° C.
In short: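 Citrullination product read by RapidFire triple-quad MRM against a modified-citrulline internal standard, after TCA stop and 30 min phenyl glyoxal step at 37 °C. Reaction: 250 μM BAEE, 5 nM human PAD4, 90 min at 37 °C, pH 7.5 HEPES buffer with 50 μM calcium and 5 μM TPEN, following 30 min compound–enzyme preincubation (max 50 μM).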

Chain of human PAD4 (hPAD4) (Q9UM07 whole entry): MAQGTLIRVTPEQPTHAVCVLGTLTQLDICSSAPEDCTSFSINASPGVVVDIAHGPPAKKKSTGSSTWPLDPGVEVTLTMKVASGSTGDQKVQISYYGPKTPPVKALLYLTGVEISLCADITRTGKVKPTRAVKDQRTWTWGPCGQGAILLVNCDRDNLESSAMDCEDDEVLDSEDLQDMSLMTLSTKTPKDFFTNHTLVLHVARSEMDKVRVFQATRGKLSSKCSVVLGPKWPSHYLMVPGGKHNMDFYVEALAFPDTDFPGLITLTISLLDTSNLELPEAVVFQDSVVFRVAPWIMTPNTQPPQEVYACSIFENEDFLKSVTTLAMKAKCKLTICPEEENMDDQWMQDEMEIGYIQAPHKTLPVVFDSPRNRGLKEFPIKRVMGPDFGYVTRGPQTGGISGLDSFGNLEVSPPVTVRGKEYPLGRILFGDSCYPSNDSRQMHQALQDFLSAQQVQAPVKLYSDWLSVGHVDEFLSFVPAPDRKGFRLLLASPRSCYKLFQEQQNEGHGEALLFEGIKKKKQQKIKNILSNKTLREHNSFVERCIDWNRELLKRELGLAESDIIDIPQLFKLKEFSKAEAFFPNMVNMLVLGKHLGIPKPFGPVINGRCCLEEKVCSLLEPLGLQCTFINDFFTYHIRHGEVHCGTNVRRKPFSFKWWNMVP

SMILES | IC50 [µM]
Cc1c(-c2cc3ccc(-c4ccc(NS(C)(=O)=O)cc4)cc3n2CC2CC2)nn2cc(C(=O)N3C[C@H](N)C[C@@H](F)C3)ccc12 [Example 369, N-[4-(2-{6-[(3R,5R)-3-Amino-5-fluoropiperidine-1-carbonyl]-3-methylpyrazolo[1,5-a]pyridin-2-yl}-1-(cyclopropylmethyl)-1H-indol-6-yl)phenyl]methanesulfonamide] | 0.02
Cc1c(-c2cc3ccc(-c4ccc(CNS(C)(=O)=O)cc4)cc3n2CC2CC2)nn2cc(C(=O)N3C[C@H](N)C[C@@H](F)C3)ccc12 [Example 370, N-{[4-(2-{6-[(3R,5R)-3-Amino-5-fluoropiperidine-1-carbonyl]-3-methylpyrazolo[1,5-a]pyridin-2-yl}-1-(cyclopropylmethyl)-1H-indol-6-yl)phenyl]methyl}methanesulfonamide] | 0.13
Cc1c(-c2cc3ccc(-c4cccc(CO)c4)cc3n2CC2CC2)nn2cc(C(=O)N3C[C@H](N)C[C@@H](F)C3)ccc12 [Example 371, [3-(2-{6-[(3R,5R)-3-Amino-5-fluoropiperidine-1-carbonyl]-3-methylpyrazolo[1,5-a]pyridin-2-yl}-1-(cyclopropylmethyl)-1H-indol-6-yl)phenyl]methanol] | 1.07
Cc1c(-c2cc3ccc(-c4ccccc4C(N)=O)cc3n2CC2CC2)nn2cc(C(=O)N3C[C@H](N)C[C@@H](F)C3)ccc12 [Example 372, 2-(2-{6-[(3R,5R)-3-Amino-5-fluoropiperidine-1-carbonyl]-3-methylpyrazolo[1,5-a]pyridin-2-yl}-1-(cyclopropylmethyl)-1H-indol-6-yl)benzamide] | 0.19
Cc1c(-c2cc3ccc(-c4ccc(C(N)=O)cc4)cc3n2CC2CC2)nn2cc(C(=O)N3C[C@H](N)C[C@@H](F)C3)ccc12 [Example 373, 4-(2-{6-[(3R,5R)-3-Amino-5-fluoropiperidine-1-carbonyl]-3-methylpyrazolo[1,5-a]pyridin-2-yl}-1-(cyclopropylmethyl)-1H-indol-6-yl)benzamide] | 0.2
Cc1c(-c2cc3ccc(-c4cc(Cl)c(CO)cc4F)cc3n2CC2CC2)nn2cc(C(=O)N3C[C@H](N)C[C@@H](F)C3)ccc12 [Example 375, [4-(2-{6-[(3R,5R)-3-Amino-5-fluoropiperidine-1-carbonyl]-3-methylpyrazolo[1,5-a]pyridin-2-yl}-1-(cyclopropylmethyl)-1H-indol-6-yl)-2-chloro-5-fluorophenyl]methanol] | 1.36
Cc1c(-c2ccc3cc(-c4nn5cc(C(=O)N6C[C@H](N)C[C@@H](F)C6)ccc5c4C)n(CC4CC4)c3c2)cc(F)c2[nH]c(=O)ccc12 [Example 376, 6-(2-{6-[(3R,5R)-3-Amino-5-fluoropiperidine-1-carbonyl]-3-methylpyrazolo[1,5-a]pyridin-2-yl}-1-(cyclopropylmethyl)-1H-indol-6-yl)-8-fluoro-5-methyl-1,2-dihydroquinolin-2-one] | 0.12
Cc1c(-c2cc3ccc(-c4ccc(C(N)=O)cc4Cl)cc3n2CC2CC2)nn2cc(C(=O)N3C[C@H](N)C[C@@H](F)C3)ccc12 [Example 377, 4-(2-{6-[(3R,5R)-3-Amino-5-fluoropiperidine-1-carbonyl]-3-methylpyrazolo[1,5-a]pyridin-2-yl}-1-(cyclopropylmethyl)-1H-indol-6-yl)-3-chlorobenzamide] | 0.09
Cc1cc(-c2ccc3cc(-c4nn5cc(C(=O)N6C[C@H](N)C[C@@H](F)C6)ccc5c4C)n(CC4CC4)c3c2)ccc1C(N)=O [Example 378, 4-(2-{6-[(3R,5R)-3-Amino-5-fluoropiperidine-1-carbonyl]-3-methylpyrazolo[1,5-a]pyridin-2-yl}-1-(cyclopropylmethyl)-1H-indol-6-yl)-2-methylbenzamide] | 0.45
Cc1c(-c2cc3ccc(-c4ccn5c(C)nnc5c4)cc3n2CC2CC2)nn2cc(C(=O)N3C[C@H](N)C[C@@H](F)C3)ccc12 [Example 379, (3R,5R)-1-{2-[1-(Cyclopropylmethyl)-6-{3-methyl-[1,2,4]triazolo[4,3-a]pyridin-7-yl}-1H-indol-2-yl]-3-methylpyrazolo[1,5-a]pyridine-6-carbonyl}-5-fluoropiperidin-3-amine] | 0.16
Cc1c(-c2cc3ccc(C(C)(C)O)nc3n2CC2CC2)nn2cc(C(=O)N3CCC[C@@H](N)C3)ccc12 [Example 380, 2-(2-{6-[(3R)-3-Aminopiperidine-1-carbonyl]-3-methylpyrazolo[1,5-a]pyridin-2-yl}-1-(cyclopropylmethyl)-1H-pyrrolo[2,3-b]pyridin-6-yl)propan-2-ol] | 0.14
Cc1c(-c2cc3ccc(C(C)(O)C(F)(F)F)nc3n2CC2CC2)nn2cc(C(=O)N3CC4CCC3[C@@H]4N)cc(F)c12 (stereo partly drawn) [Example 383, 2-(2-{6-[(7R)-7-Amino-2-azabicyclo[2.2.1]heptane-2-carbonyl]-4-fluoro-3-methylpyrazolo[1,5-a]pyridin-2-yl}-1-(cyclopropylmethyl)-1H-pyrrolo[2,3-b]pyridin-6-yl)-1,1,1-trifluoropropan-2-ol] | 0.04
Cc1c(-c2cc3ccc(C(C)(O)C4CC4)nc3n2CC2CC2)nn2cc(C(=O)N3CC4CCC3[C@@H]4N)cc(F)c12 (stereo partly drawn) [Example 384, 1-(2-{6-[(7R)-7-Amino-2-azabicyclo[2.2.1]heptane-2-carbonyl]-4-fluoro-3-methylpyrazolo[1,5-a]pyridin-2-yl}-1-(cyclopropylmethyl)-1H-pyrrolo[2,3-b]pyridin-6-yl)-1-cyclopropylethan-1-ol] | 0.2
COc1cc(C(=O)N2C[C@H](N)C[C@@H](F)C2)cn2nc(-c3cc4cccc(C5CCN(C(=O)[C@H]6CC[C@H](O)CC6)CC5)c4n3CC3CC3)c(C)c12 [Example 391, ((3R,5R)-3-Amino-5-fluoropiperidin-1-yl)(2-(1-(cyclopropylmethyl)-7-(1-((1r,4r)-4-hydroxycyclohexane-1-carbonyl)piperidin-4-yl)-1H-indol-2-yl)-4-methoxy-3-methylpyrazolo[1,5-a]pyridin-6-yl)methanone] | 0.01
COc1cc(C(=O)N2C[C@H](N)C[C@@H](F)C2)cn2nc(-c3cc4cccc(C5CCN(C(=O)[C@@H](C)OC)CC5)c4n3CC3CC3)c(C)c12 [Example 395, (R)-1-(4-(2-(6-((3R,5R)-3-Amino-5-fluoropiperidine-1-carbonyl)-4-methoxy-3-methylpyrazolo[1,5-a]pyridin-2-yl)-1-(cyclopropylmethyl)-1H-indol-7-yl)piperidin-1-yl)-2-methoxypropan-1-one] | 0.14
COCC(=O)N1CCC(c2cccc3cc(-c4nn5cc(C(=O)N6CCC[C@@H](N)C6)cc(OC)c5c4C)n(CC4CC4)c23)CC1 [Example 401, (R)-1-(4-(2-(6-(3-Aminopiperidine-1-carbonyl)-4-methoxy-3-methylpyrazolo[1,5-a]pyridin-2-yl)-1-(cyclopropylmethyl)-1H-indol-7-yl)piperidin-1-yl)-2-methoxyethan-1-one] | 0.02
COc1cc(C(=O)N2CCC[C@@H](N)C2)cn2nc(-c3cc4cccc(C5CCN(C(=O)[C@@H](C)OC)CC5)c4n3CC3CC3)c(C)c12 [Example 402, (R)-1-(4-(2-(6-((R)-3-Aminopiperidine-1-carbonyl)-4-methoxy-3-methylpyrazolo[1,5-a]pyridin-2-yl)-1-(cyclopropylmethyl)-1H-indol-7-yl)piperidin-1-yl)-2-methoxypropan-1-one] | 0.06
COc1cc(C(=O)N2CCC[C@@H](N)C2)cn2nc(-c3cc4cccc(C5CCN(C(=O)[C@H](C)OC)CC5)c4n3CC3CC3)c(C)c12 [Example 403, (S)-1-(4-(2-(6-((R)-3-Aminopiperidine-1-carbonyl)-4-methoxy-3-methylpyrazolo[1,5-a]pyridin-2-yl)-1-(cyclopropylmethyl)-1H-indol-7-yl)piperidin-1-yl)-2-methoxypropan-1-one] | 0.46
COc1cc(C(=O)N2C[C@H](N)C[C@@H](F)C2)cn2nc(-c3cc4cccc(C5CCN(C(=O)[C@H](C)OC)CC5)c4n3CC3CC3)c(C)c12 [Example 404, (S)-1-(4-(2-(6-((3R,5R)-3-Amino-5-fluoropiperidine-1-carbonyl)-4-methoxy-3-methylpyrazolo[1,5-a]pyridin-2-yl)-1-(cyclopropylmethyl)-1H-indol-7-yl)piperidin-1-yl)-2-methoxypropan-1-one] | 0.03
COCC(=O)N1CCC(c2cccc3cc(-c4nn5cc(C(=O)N6C[C@H](N)C[C@@H](F)C6)cc(OC)c5c4C)n(CC4CC4)c23)CC1 [Example 405, 1-(4-(2-(6-((3R,5R)-3-Amino-5-fluoropiperidine-1-carbonyl)-4-methoxy-3-methylpyrazolo[1,5-a]pyridin-2-yl)-1-(cyclopropylmethyl)-1H-indol-7-yl)piperidin-1-yl)-2-methoxyethan-1-one] | 0.02
COc1cc(C(=O)N2CCC[C@@H](N)C2)cn2nc(-c3cc4cccc(C5CCN(C(=O)[C@H]6CC[C@@H](O)CC6)CC5)c4n3CC3CC3)c(C)c12 [Example 406, ((R)-3-Aminopiperidin-1-yl)(2-(1-(cyclopropylmethyl)-7-(1-((1s,4s)-4-hydroxycyclohexane-1-carbonyl)piperidin-4-yl)-1H-indol-2-yl)-4-methoxy-3-methylpyrazolo[1,5-a]pyridin-6-yl)methanone] | 0.09
COc1cc(C(=O)N2C[C@H](N)C[C@@H](F)C2)cn2nc(-c3cc4cccc(C5CCN(C(=O)[C@H]6CC[C@@H](O)CC6)CC5)c4n3CC3CC3)c(C)c12 [Example 407, ((3R,5R)-3-Amino-5-fluoropiperidin-1-yl)(2-(1-(cyclopropylmethyl)-7-(1-((1s,4s)-4-hydroxycyclohexane-1-carbonyl)piperidin-4-yl)-1H-indol-2-yl)-4-methoxy-3-methylpyrazolo[1,5-a]pyridin-6-yl)methanone] | 0.03
